Results reported in ChEMBL document CHEMBL1133420, “Parallel synthesis of a series of subtype-selective NMDA receptor antagonists” (Bioorg Med Chem Lett, 2000).
One block for each compound: values may come before it.

Key:
Format in all cases: functional, cell-based, Oocyte
[1] = target: Glutamate receptor ionotropic, NMDA 2C (Homo sapiens, UniProt Q05586+Q14957); assay: Antagonistic activity against NR1A/2C receptor in frog oocytes
[2] = target: Glutamate receptor ionotropic, NMDA 2A (Homo sapiens, UniProt Q05586+Q12879); assay: Antagonistic activity against NR1A/2A receptors in frog oocytes
Sequence of Glutamate receptor ionotropic, NMDA 2A (Q12879 whole entry, one chain of several): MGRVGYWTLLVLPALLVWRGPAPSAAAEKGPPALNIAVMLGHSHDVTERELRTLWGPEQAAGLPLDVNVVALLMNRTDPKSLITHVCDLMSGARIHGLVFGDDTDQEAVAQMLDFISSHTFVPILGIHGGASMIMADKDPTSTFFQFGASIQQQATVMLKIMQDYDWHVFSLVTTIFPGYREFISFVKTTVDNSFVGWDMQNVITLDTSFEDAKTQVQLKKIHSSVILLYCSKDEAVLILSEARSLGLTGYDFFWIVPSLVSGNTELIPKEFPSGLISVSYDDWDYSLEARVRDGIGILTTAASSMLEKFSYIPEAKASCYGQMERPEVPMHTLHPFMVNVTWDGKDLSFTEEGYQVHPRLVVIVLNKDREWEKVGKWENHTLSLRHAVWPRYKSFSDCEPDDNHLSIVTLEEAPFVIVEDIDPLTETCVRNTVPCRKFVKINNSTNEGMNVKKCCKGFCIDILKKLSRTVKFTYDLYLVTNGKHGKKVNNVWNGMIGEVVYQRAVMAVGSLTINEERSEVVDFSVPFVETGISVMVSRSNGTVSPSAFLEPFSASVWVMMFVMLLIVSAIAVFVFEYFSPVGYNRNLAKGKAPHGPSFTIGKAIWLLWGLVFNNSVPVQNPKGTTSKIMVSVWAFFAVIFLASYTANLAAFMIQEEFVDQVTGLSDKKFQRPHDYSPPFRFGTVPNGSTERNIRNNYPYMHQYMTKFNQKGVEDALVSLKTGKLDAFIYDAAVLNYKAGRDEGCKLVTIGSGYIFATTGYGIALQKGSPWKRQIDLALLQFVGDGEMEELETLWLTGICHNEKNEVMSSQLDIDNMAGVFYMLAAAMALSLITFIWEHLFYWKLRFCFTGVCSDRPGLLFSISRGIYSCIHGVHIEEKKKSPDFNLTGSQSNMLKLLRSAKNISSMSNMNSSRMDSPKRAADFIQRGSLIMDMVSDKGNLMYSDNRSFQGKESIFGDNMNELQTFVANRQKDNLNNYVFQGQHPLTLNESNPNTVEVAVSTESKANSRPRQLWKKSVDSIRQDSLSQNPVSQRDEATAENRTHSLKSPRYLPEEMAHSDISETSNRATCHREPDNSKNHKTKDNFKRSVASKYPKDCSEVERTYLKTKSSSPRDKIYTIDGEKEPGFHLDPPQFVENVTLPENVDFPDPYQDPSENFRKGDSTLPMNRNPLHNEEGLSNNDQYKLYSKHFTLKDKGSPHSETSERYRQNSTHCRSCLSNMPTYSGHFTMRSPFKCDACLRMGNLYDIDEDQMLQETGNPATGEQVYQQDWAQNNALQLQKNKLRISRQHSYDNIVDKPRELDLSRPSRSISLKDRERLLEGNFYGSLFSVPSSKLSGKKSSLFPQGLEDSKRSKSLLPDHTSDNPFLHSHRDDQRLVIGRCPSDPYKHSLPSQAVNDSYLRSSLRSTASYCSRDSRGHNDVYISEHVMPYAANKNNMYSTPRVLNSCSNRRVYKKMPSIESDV

[3] = target: Glutamate receptor ionotropic, NMDA 2B (Homo sapiens, UniProt Q05586+Q13224); assay: Antagonistic activity against NR1A/2B receptor in frog oocytes
Sequence of Glutamate receptor ionotropic, NMDA 2B (Q13224 whole entry, one chain of several): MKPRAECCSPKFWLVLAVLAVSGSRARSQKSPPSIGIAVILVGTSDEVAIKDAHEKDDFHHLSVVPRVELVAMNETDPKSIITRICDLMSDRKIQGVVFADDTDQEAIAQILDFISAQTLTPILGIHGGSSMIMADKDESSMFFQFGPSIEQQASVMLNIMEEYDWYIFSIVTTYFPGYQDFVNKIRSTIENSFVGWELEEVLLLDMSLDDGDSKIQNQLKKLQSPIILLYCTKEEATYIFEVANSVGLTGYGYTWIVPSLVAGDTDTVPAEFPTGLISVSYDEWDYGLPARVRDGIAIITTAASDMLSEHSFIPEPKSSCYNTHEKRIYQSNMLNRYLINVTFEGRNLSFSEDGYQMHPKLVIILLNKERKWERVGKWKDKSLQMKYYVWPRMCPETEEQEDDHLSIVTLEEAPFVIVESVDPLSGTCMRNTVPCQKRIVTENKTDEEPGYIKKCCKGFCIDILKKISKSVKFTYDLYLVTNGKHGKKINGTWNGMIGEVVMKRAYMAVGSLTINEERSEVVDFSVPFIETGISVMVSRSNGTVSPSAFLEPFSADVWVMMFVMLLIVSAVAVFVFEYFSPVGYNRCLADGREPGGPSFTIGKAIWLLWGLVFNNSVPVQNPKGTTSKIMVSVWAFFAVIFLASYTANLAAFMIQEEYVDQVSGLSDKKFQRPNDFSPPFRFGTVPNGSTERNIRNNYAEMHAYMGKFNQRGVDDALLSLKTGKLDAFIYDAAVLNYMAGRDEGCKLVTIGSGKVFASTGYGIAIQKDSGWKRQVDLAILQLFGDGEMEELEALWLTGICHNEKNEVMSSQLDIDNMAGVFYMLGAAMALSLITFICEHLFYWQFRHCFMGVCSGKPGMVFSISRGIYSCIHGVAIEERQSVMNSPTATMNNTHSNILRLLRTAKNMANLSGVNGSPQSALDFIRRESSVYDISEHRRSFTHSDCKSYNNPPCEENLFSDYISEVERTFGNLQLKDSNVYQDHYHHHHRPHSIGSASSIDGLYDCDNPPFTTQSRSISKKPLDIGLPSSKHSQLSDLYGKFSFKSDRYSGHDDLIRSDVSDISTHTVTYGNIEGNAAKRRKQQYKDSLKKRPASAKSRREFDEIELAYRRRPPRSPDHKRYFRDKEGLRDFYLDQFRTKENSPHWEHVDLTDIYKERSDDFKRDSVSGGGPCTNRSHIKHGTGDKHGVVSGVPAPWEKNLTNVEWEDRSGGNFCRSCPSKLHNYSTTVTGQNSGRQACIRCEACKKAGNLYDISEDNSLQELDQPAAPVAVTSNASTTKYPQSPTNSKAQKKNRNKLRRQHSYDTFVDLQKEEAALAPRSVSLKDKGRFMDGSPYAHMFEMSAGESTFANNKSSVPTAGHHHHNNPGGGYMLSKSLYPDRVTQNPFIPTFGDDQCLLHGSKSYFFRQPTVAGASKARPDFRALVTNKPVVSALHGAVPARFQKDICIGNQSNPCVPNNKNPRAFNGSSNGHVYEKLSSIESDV

Sequence of Glutamate receptor ionotropic, NMDA 2C (Q14957 whole entry, one chain of several): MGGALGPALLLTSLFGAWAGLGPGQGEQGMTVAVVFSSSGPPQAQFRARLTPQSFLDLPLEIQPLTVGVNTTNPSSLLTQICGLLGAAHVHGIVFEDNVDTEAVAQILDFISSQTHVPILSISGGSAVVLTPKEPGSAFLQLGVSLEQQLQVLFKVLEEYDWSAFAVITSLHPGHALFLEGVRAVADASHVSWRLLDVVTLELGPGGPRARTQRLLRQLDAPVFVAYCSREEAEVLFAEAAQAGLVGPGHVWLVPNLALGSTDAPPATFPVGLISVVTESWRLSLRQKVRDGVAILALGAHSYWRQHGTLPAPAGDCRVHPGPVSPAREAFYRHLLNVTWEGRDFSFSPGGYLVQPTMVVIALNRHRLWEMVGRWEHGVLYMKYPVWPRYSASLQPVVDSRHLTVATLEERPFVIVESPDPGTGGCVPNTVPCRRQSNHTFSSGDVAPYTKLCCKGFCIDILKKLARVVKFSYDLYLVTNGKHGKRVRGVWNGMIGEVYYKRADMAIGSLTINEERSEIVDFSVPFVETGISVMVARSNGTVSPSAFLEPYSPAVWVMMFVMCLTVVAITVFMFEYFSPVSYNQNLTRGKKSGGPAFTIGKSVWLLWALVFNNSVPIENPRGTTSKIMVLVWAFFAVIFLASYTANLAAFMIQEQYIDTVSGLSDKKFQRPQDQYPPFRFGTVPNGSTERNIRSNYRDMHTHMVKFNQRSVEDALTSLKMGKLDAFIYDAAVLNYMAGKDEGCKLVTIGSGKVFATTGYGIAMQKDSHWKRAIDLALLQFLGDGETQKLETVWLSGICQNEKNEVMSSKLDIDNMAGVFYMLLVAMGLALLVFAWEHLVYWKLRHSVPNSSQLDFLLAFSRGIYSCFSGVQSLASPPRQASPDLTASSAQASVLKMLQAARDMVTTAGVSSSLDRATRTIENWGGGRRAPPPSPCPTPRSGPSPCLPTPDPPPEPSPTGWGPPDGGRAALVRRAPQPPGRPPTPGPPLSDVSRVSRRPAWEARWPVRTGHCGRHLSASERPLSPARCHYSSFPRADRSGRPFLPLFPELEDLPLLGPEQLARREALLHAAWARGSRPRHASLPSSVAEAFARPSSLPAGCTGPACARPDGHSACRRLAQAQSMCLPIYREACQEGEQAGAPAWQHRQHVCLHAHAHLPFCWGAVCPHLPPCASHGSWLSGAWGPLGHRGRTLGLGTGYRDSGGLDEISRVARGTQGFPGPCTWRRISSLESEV

Compound: Oc1ccc(C#CCCN2CCC(Cc3ccccc3)CC2)cc1
IC50 [1]: > 100 µM
IC50 [2]: > 100 µM
IC50 [3]: 0.1 µM

Compound: Cc1n[nH]c(SCCCN2CCC(Cc3ccccc3)CC2)n1
IC50 [1]: > 100 µM
IC50 [2]: > 100 µM
IC50 [3]: 1 µM

Compound: c1ccc(CC2CCN(CCSc3ncc[nH]3)CC2)cc1
IC50 [1]: > 100 µM
IC50 [2]: > 100 µM
IC50 [3]: 0.07 µM

Compound: Cc1n[nH]c(SCCN2CCC(Cc3ccccc3)CC2)n1
IC50 [1]: > 100 µM
IC50 [2]: > 100 µM
IC50 [3]: 0.15 µM

Compound: Nc1n[nH]c(SCCCN2CCC(Cc3ccccc3)CC2)n1
IC50 [1]: > 100 µM
IC50 [2]: 77 µM
IC50 [3]: 0.63 µM

Compound: c1ccc(CC2CCN(CCCSc3nc4ncccc4[nH]3)CC2)cc1
IC50 [1]: > 100 µM
IC50 [2]: > 100 µM
IC50 [3]: 1.6 µM

Compound: Nc1nnc(SCCN2CCC(Cc3ccccc3)CC2)s1
IC50 [1]: > 100 µM
IC50 [2]: > 100 µM
IC50 [3]: 0.21 µM

Compound: c1ccc(CC2CCN(CCSc3nc4ccccc4[nH]3)CC2)cc1
IC50 [1]: > 100 µM
IC50 [3]: 0.38 µM

Compound: O=[N+]([O-])c1ccc2nc(SCCCN3CCC(Cc4ccccc4)CC3)[nH]c2c1
IC50 [1]: > 100 µM
IC50 [2]: 61 µM
IC50 [3]: 0.91 µM

Compound: Nc1nnc(SCCCN2CCC(Cc3ccccc3)CC2)s1
IC50 [1]: > 100 µM
IC50 [2]: 73 µM
IC50 [3]: 0.56 µM

Compound: Nc1nnc(SCCN2CCC(Cc3ccccc3)CC2)[nH]1
IC50 [1]: > 100 µM
IC50 [2]: > 100 µM
IC50 [3]: 0.035 µM

Compound: c1ccc(CC2CCN(CCCSc3ccccc3)CC2)cc1
IC50 [1]: > 100 µM
IC50 [3]: 4.3 µM

Compound: O=[N+]([O-])c1ccc2[nH]c(SCCN3CCC(Cc4ccccc4)CC3)nc2c1
IC50 [1]: > 100 µM
IC50 [2]: > 100 µM
IC50 [3]: 7.4 µM

Compound: Cc1nnc(SCCN2CCC(Cc3ccccc3)CC2)s1
IC50 [1]: > 100 µM
IC50 [2]: > 100 µM
IC50 [3]: 4.8 µM

Continued, values first:

IC50 [1]: > 100 µM
IC50 [2]: > 100 µM
IC50 [3]: 6.4 µM
Compound: Cc1nnc(SCCCN2CCC(Cc3ccccc3)CC2)s1

IC50 [1]: > 100 µM
IC50 [2]: 35 µM
IC50 [3]: 0.1 µM
Compound: Oc1ccc(SCCN2CCC(Cc3ccccc3)CC2)cc1

IC50 [1]: > 100 µM
IC50 [2]: 51 µM
IC50 [3]: 0.63 µM
Compound: c1ccc(CC2CCN(CCCSc3nnc[nH]3)CC2)cc1

IC50 [1]: > 100 µM
IC50 [2]: 77 µM
IC50 [3]: 0.61 µM
Compound: c1ccc(CC2CCN(CCCSc3ncc[nH]3)CC2)cc1

IC50 [1]: 51 µM
IC50 [2]: 64 µM
IC50 [3]: 1 µM
Compound: c1ccc(CC2CCN(CCCSc3nc4ccccc4[nH]3)CC2)cc1

IC50 [1]: > 100 µM
IC50 [2]: > 100 µM
IC50 [3]: 0.24 µM
Compound: c1ccc(CC2CCN(CCSc3nc4ncccc4[nH]3)CC2)cc1

IC50 [1]: > 100 µM
IC50 [2]: > 100 µM
IC50 [3]: 0.13 µM
Compound: c1ccc(CC2CCN(CCSc3nc[nH]n3)CC2)cc1

IC50 [1]: > 100 µM
IC50 [2]: > 100 µM
IC50 [3]: 0.93 µM
Compound: c1ccc(CC2CCN(CCSc3ccccc3)CC2)cc1
